Test results: patent US20190231771A1, “METHODS FOR TREATMENT AND PREVENTION OF OPIOID INDUCED CONSTIPATION USING ORAL COMPOSITIONS OF METHYLNALTREXONE” (Salix Pharmaceuticals, Ltd., priority 2011, published 2019)
“And” between values parts separate entries of the source, which are not always exact repeats. Equal values may be shown once.

Columns and labels:
[1] = Comparative bioavailability: single oral 150, 300, 450 mg MNTX tablets vs 12 mg SC injection, crossover; format: in vivo, human; details: for t1/2 / half-life: harmonic mean; for bioavailability: arithmetic mean AUC0-∞, read-out: dose-normalized bioavailability of oral MNTX relative to SC MNTX
From the text: The oral dosage levels and formulation of MNTX evaluated here were the same as those in a phase 3 study of oral MNTX tablets, with the exception of a nonfunctional coating on the MNTX tablets. […] The pharmacokinetics of the uncoated tablet used in the phase 3 study and the coated tablets used in the current study were compared in a separate study. […] A single-dose pharmacokinetic profile of oral MNTX tablets was also planned for evaluation in this study.
Presented herein is a randomized, open-label, crossover study consisting of 6 dosing sequences, each with 2 dosing periods; the dosing periods were separated by 7 days. All subjects were housed in the clinical research unit from Day −1 through Day 14 and were discharged on Day 15, which concluded their participation in the study. Prior to receiving study drug on Days 1 and 8, the subjects underwent an overnight fast of at least 10 hours, beginning on Days 0 and 7, respectively. In both dosing periods, the subjects received a single oral dose of MNTX tablets (150, 300, or 450 mg) or a single SC injection of MNTX (12 mg). The dosing was conducted in a crossover fashion (e.g., a tablet was administered at one visit and a SC injection was administered at the alternate visit). The strength of oral methylnaltrexone dose (150 mg, 300 mg, or 450 mg) and the dosing sequence (Day 1: oral tablet; Day 8: SC injection vs the alternate dosing order) for each subject were determined by random assignment. Each oral dose was administered with 240 mL of room temperature drinking water. The subjects were instructed to drink all of the water and were told to swallow the tablets whole (e.g., not to chew, divide, or crush them). Blood samples were collected for pharmacokinetic analyses prior to dosing (approximately 1 hour prior) on Day 1, and at 0.25, 0.5, 1, 2, 4, 6, 8, 10, 12, 16, 24, 36, 48, 72, 96, 120, 144, and 168 hours after dosing on Days 1 and 8.
Each tablet contained 150 mg of the active pharmaceutical ingredient, MNTX.
Each injection vial contained 12 mg of the active pharmaceutical ingredient, MNTX, per 0.6 mL of solution (i.e., 20 mg/mL solution).
In this study, all 48 enrolled subjects received study drug in each of the 2 study periods and were included in the safety and pharmacokinetic analyses.
This was a phase 1, randomized, open-label, crossover study consisting of 6 dosing sequences, each with 2 dosing periods. In both dosing periods, the subjects received a single oral dose of MNTX tablets (150, 300, or 450 mg) or a single SC injection of MNTX (12 mg). The dosing was conducted in a crossover fashion (i.e., a tablet was administered at one visit and a SC injection was administered at the alternate visit).
Forty-eight subjects were enrolled and 47 subjects (97.9%) completed the study; one subject discontinued due to personal reasons after receiving study drug in both study periods. The subjects received study drug in accordance with the randomization schedule; specifically, 16 subjects each received a single oral dose of 150, 300, and 450 mg MNTX tablets and all 48 subjects received a single 12 mg SC injection of MNTX.

[2] = Study C: single and multiple dose pharmacokinetics of MNTX and metabolites, MNTX 450 mg PO x 7 days; format: in vivo, human; details: for bioavailability: oral, MNTX tablets 450 mg, cross-study AUCinf comparison; for bioavailability / half-life / AUC(0-inf) / AUC(0-t) / Cmax: 450 mg; for half-life / AUC(0-inf) / AUC(0-t) / Cmax: po; for AUC(0-t): read-out: AUC0-24; for Cmax: read-out: Cmax
Method: Presented herein is a clinical pharmacokinetics study, Study C, as well as Studies A and B. Study A investigated the single and multiple dose pharmacokinetics of methylnaltrexone (MNTX) and its metabolites (M2: methylnaltrexone sulfate; M4: 6α-methylnaltrexol; and M5: 6β-methylnaltrexol) following the subcutaneous administration of 12 mg methylnaltrexone. In Study B, the single and multiple dose pharmacokinetics of methylnaltrexone (MNTX) and its metabolites (M2, M4, and M5) were examined following a 20-minute short intravenous infusion of 24 mg of methylnaltrexone (MNTX).
In addition, the urinary elimination of MNTX was characterized.
Pharmacokinetic parameters included Cmax, AUCt, AUCinf, tmax, t1/2, % Re24, accumulation factor (R) as defined below and metabolite/parent drug ratio.
R=Accumulation Factor(based on AUC0-24(ng·h/mL):Day 7 AUC AUC0-24/Day 1 AUC0-24
Metabolite-Parent Drug ratio(based on ng·h/mL)(%)=100*(Metabolite AUC24/MNTX AUC24)
Note: AUCinf was used in place of AUC AUC0-24 for R and Metabolite-Parent Drug ratio computations following IV administration.

[3] = MNTX 12 mg SC Injection, single dose, mean
[4] = MNTX 150 mg Tablet vs 12 mg SC Injection
[5] = MNTX 150 mg Tablet, single oral dose, mean
[6] = MNTX 300 mg Tablet, single oral dose, mean
[7] = MNTX 450 mg Tablet, single oral dose, mean
[8] = human, plasma, 450 mg Tablets oral, Day 1, mean
[9] = human, plasma, 450 mg Tablets oral, Day 7, mean

Question: What does the source list for `C[N@+]1(CC2CC2)CC[C@]23c4c5ccc(O)c4O[C@H]2C(=O)CC[C@@]3(O)[C@H]1C5.[Br-]` [MNTX, (R)—N-(cyclopropylmethyl) noroxymorphone methobromide]?
Answer: t1/2 ([1]; MNTX 12 mg SC Injection, single dose): 9.16 h; AUC0-∞ [1, 3]: 269.09 ng·h/mL; CL/F [1, 3]: 45698.7 mL/h and 45698.71 mL/h; Cmax [1, 3]: 174.01 ng/mL; AUC0-t GMR, tablet/injection × 100 [1, 4]: 35.61%; AUC0-∞ GMR, tablet/injection × 100 [1, 4]: 36.41%; Cmax GMR, tablet/injection × 100 [1, 4]: 5.779%; t1/2 ([1]; MNTX 150 mg Tablet, single oral dose): 13.95 h; AUC0-∞ [1, 5]: 106.87 ng·h/mL; CL/F [1, 5]: 1735472.22 mL/h; Cmax [1, 5]: 13.22 ng/mL; AUC0-t GMR, tablet/injection × 100 ([1]; MNTX 300 mg Tablet vs 12 mg SC Injection): 74.73%; t1/2 ([1]; MNTX 300 mg Tablet, single oral dose): 14.16 h; AUC0-∞ [1, 6]: 231.24 ng·h/mL; CL/F [1, 6]: 1564638.99 mL/h; Cmax [1, 6]: 26.22 ng/mL; AUC0-t GMR, tablet/injection × 100 ([1]; MNTX 450 mg Tablet vs 12 mg SC Injection): 121.4%; t1/2 ([1]; MNTX 450 mg Tablet, single oral dose): 16.57 h; AUC0-∞ [1, 7]: 373.32 ng·h/mL; CL/F [1, 7]: 1664001.3 mL/h and 1664001.28 mL/h; Cmax [1, 7]: 39.89 ng/mL; AUC(0-t) ([1]; human, plasma, oral, 150 mg, MNTX 150 mg Tablet, read-out: AUC0-t, Geometric LSM): 94.2 ng·h/mL; AUC(0-inf) ([1]; human, plasma, oral, 150 mg, MNTX 150 mg Tablet, read-out: AUC0-∞, Geometric LSM): 96.7 ng·h/mL; Cmax ([1]; human, plasma, oral, 150 mg, MNTX 150 mg Tablet, read-out: Cmax, Geometric LSM): 9.47 ng/mL; AUC(0-t) ([1]; human, plasma, oral, 300 mg, MNTX 300 mg Tablet, read-out: AUC0-t, Geometric LSM): 198 ng·h/mL; AUC(0-inf) ([1]; human, plasma, oral, 300 mg, MNTX 300 mg Tablet, read-out: AUC0-∞, Geometric LSM): 200 ng·h/mL; Cmax ([1]; human, plasma, oral, 300 mg, MNTX 300 mg Tablet, read-out: Cmax, Geometric LSM): 21.8 ng/mL; AUC(0-t) ([1]; human, plasma, oral, 450 mg, MNTX 450 mg Tablet, read-out: AUC0-t, Geometric LSM): 321 ng·h/mL; AUC(0-inf) ([1]; human, plasma, oral, 450 mg, MNTX 450 mg Tablet, read-out: AUC0-∞, Geometric LSM): 327 ng·h/mL; Cmax ([1]; human, plasma, oral, 450 mg, MNTX 450 mg Tablet, read-out: Cmax, Geometric LSM): 32.7 ng/mL; half-life ([1]; human, plasma, po, 150 mg, MNTX 150 mg Tablet, single oral dose): 14 h; AUC(0-t) ([1]; human, plasma, po, 150 mg, MNTX 150 mg Tablet, single oral dose, mean, read-out: AUC0-t): 105 ng·h/mL; AUC(0-inf) ([1]; human, plasma, po, 150 mg, MNTX 150 mg Tablet, single oral dose, mean, read-out: AUC0-∞): 107 ng·h/mL; Cmax ([1]; human, plasma, po, 150 mg, MNTX 150 mg Tablet, single oral dose, mean, read-out: Cmax): 13.2 ng/mL; half-life ([1]; human, plasma, po, 300 mg, MNTX 300 mg Tablet, single oral dose): 14.2 h; AUC(0-t) ([1]; human, plasma, po, 300 mg, MNTX 300 mg Tablet, single oral dose, mean, read-out: AUC0-t): 229 ng·h/mL; AUC(0-inf) ([1]; human, plasma, po, 300 mg, MNTX 300 mg Tablet, single oral dose, mean, read-out: AUC0-∞): 231 ng·h/mL; Cmax ([1]; human, plasma, po, 300 mg, MNTX 300 mg Tablet, single oral dose, mean, read-out: Cmax): 26.2 ng/mL; half-life ([1]; human, plasma, po, 450 mg, MNTX 450 mg Tablet, single oral dose): 16.6 h; AUC(0-t) ([1]; human, plasma, po, 450 mg, MNTX 450 mg Tablet, single oral dose, mean, read-out: AUC0-t): 367 ng·h/mL; AUC(0-inf) ([1]; human, plasma, po, 450 mg, MNTX 450 mg Tablet, single oral dose, mean, read-out: AUC0-∞): 373 ng·h/mL; Cmax ([1]; human, plasma, po, 450 mg, MNTX 450 mg Tablet, single oral dose, mean, read-out: Cmax): 39.9 ng/mL; half-life ([1]; human, plasma, sc, 12 mg, MNTX 12 mg SC Injection, single dose): 9.2 h; AUC(0-t) ([1]; human, plasma, sc, 12 mg, MNTX 12 mg SC Injection, single dose, mean, read-out: AUC0-t): 268 ng·h/mL; AUC(0-inf) ([1]; human, plasma, sc, 12 mg, MNTX 12 mg SC Injection, single dose, mean, read-out: AUC0-∞): 269 ng·h/mL; Cmax ([1]; human, plasma, sc, 12 mg, MNTX 12 mg SC Injection, single dose, mean, read-out: Cmax): 174 ng/mL; AUC(0-t) ([1]; human, plasma, sc, 12 mg, MNTX 12 mg SC Injection, read-out: AUC0-t, Geometric LSM): 264 ng·h/mL; AUC(0-inf) ([1]; human, plasma, sc, 12 mg, MNTX 12 mg SC Injection, read-out: AUC0-∞, Geometric LSM): 266 ng·h/mL; Cmax ([1]; human, plasma, sc, 12 mg, MNTX 12 mg SC Injection, read-out: Cmax, Geometric LSM): 164 ng/mL; Tmax ([1]; human, plasma, 12 mg SC injection, read-out: median Tmax (converted)): 0.25 h; Tmax ([1]; human, plasma, MNTX 150 mg Tablet, single oral dose, median, read-out: Tmax): 2 h; Tmax ([1]; human, plasma, MNTX 300 mg Tablet, single oral dose, median, read-out: Tmax): 1.5 h; Tmax ([1]; human, plasma, MNTX 450 mg Tablet, single oral dose, median, read-out: Tmax): 2 h; bioavailability ([1]; human, plasma, oral 150 mg vs 12 mg SC): 3.2%; bioavailability ([1]; human, plasma, oral 300 mg vs 12 mg SC): 3.4%; bioavailability ([1]; human, plasma, oral 450 mg vs 12 mg SC): 3.7%; Tmax ([1]; human, plasma, oral MNTX tablets 150 mg to 450 mg, read-out: median Tmax, range over the oral doses): 1.5 to 2 h; tolerability ([1]; oral 150, 300, 450 mg tablets and 12 mg SC injection, healthy volunteers): well tolerated; Tmax shorter following SC MNTX 12 mg versus oral MNTX 150, 300, and 450 mg ([1]; single doses): 6- to 8 fold; mean AUC0-∞ following SC MNTX 12 mg higher versus oral MNTX 300 mg ([1]; single doses): 16%; mean AUC0-∞ following SC MNTX 12 mg lower versus oral MNTX 450 mg ([1]; single doses): 28%; t1/2 shorter following SC MNTX 12 mg versus oral MNTX 150, 300, and 450 mg ([1]; single doses): 5 to 7 h; R (PO), accumulation factor ([2]; 450 mg Tablets oral, AUC0-24 on Day 7/AUC0-24 on Day 1): 1.20; bioavailability ([2]; human, plasma, multiple dose, read-out: bioavailability relative to IV multiple dose administration): 5.8%; bioavailability ([2]; human, plasma, multiple dose, read-out: bioavailability relative to SC multiple dose administration): 4.8%; bioavailability ([2]; human, plasma, single dose, read-out: absolute bioavailability (relative to IV infusion)): 4.24%; bioavailability ([2]; human, plasma, single dose, read-out: bioavailability relative to SC injection): 3.7%; half-life ([2]; human, plasma, 450 mg Tablets oral, Day 1, harmonic mean): 8.8 h; AUC(0-inf) [2, 8]: 315 ng·h/mL; AUC(0-t) [2, 8]: 280 ng·h/mL; Cmax [2, 8]: 47 ng/mL; half-life ([2]; human, plasma, 450 mg Tablets oral, Day 7, harmonic mean): 19.2 h; AUC(0-inf) [2, 9]: 404 ng·h/mL; AUC(0-t) [2, 9]: 309 ng·h/mL; Cmax [2, 9]: 45.5 ng/mL; Tmax ([2]; human, plasma, 450 mg Tablets oral, Day 1, median, read-out: Tmax): 2 h
